# Measurements: patent US8609711B2, “Crystalline N-{(1S)-2-amino-1-[(3-fluorophenyl)methyl]ethyl}-5-chloro-4-(4-chloro-1-methyl-1H-pyrazol-5-yl)-2-thiophenecarboxamic hydrochloride” (GlaxoSmithKline LLC, priority 2009, dated 2013)
# “Also recorded” adds a separate entry of the source.
# Experiment: Hygroscopicity, VTI instrument SGA 100
# Conditions: for weight increase (moisture): 25 °C; for hygroscopicity (in words): hydrochloride
# Source text: There were 24 Relative Humidity steps used. The Relative Humidity at each step is as follows.
"weight increase (moisture) (drying at 60 °C, 19 relative humidity steps between 0 and 90, max equilibrium time 300 min)","weight increase (moisture) (no drying, 24 relative humidity steps between 5 and 90, max equilibrium time 240 min)",SMILES,hygroscopicity (in words)
more than 18 % w/w,,Cl.Cn1ncc(Cl)c1-c1cc(C(=O)N[C@H](CN)Cc2cccc(F)c2)sc1Cl [Example 3],hygroscopic; also recorded: high level of hygroscopicity
,less than 1 % w/w,Cl.Cn1ncc(Cl)c1-c1cc(C(=O)N[C@H](CN)Cc2cccc(F)c2)sc1Cl [Compound A],non-hygroscopic; also recorded: low level of hygroscopicity
